What all share (type): biochemical
In assay [1] the target is cathepsin S (Homo sapiens, UniProt P25774). The assay can be described thus: fluorimetric hydrolysis of Z-Leu-Arg-AMC by purified enzyme, pH […].
In assay [2] the target is mouse cathepsin S (Mus musculus, UniProt O70370). Described as above.
The target of assay [3] is cathepsin B (Homo sapiens, UniProt P07858). The assay can be described thus: enzyme selectivity assay with peptide substrate.

Usually Ki stands for a measure of affinity in units of concentration, obtained from inhibition or displacement.

cathepsin S, sequence (P25774 115-331): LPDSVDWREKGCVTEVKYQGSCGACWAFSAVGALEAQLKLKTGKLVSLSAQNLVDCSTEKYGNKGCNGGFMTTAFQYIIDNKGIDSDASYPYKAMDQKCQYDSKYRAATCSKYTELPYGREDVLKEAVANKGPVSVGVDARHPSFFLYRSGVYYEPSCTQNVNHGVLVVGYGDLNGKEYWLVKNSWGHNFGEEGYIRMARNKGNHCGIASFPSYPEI

For the substance VBY-999, the Ki came to 0.29 nM in assay [1], 0.69 nM in assay [2] and 700 nM in assay [3].

The record behind these values is PMC4249762 (Nature cell biology, 2014).
